Assay results from PMC4983413, “Intracellular accumulation of Praziquantel in T lymphoblastoid cell lines, CEM (parental) and CEMVBL(P-gp-overexpressing)” (BMC Pharmacology & Toxicology, 2016).
Several values for one entry are separate records, joined by “and”; a condition that tells them apart may be missing. Equal values may be shown once. Entries after “also recorded” stand apart in the source; their conditions may differ.

Legend:
[1] = system: CEM (parental) T-lymphoblastoid cells; assay: Intracellular accumulation (substrate study) in CEM parental cells; format: in vitro ADME; conditions: 10 μg/ml drug, 30 min, 37 °C
Protocol: The parental cell line was CEM (T-lymphoblastoid cell line) was used as the parental cell line. CEMVBL cells that have increased expression of P-gp were selected under vinblastine. The selection of drug resistant cells was carried out by using increasing concentrations of vinblastine up to 100 ng/mL. CEM and CEMVBL Cells were cultured in 175 cm^2 flasks containing DMEM supplemented with 15 % FBS at 37 °C in a humidified 5 % CO2 gassed incubator, conditions which led to doubling after approximately every 24 h.
The cell samples were centrifuged (2000 × g for 5 min at 4 °C) and the supernatant fraction discarded. […] The cells were then incubated at 37 °C for 30 min in a shaking water bath. The resulting cell suspensions were then centrifuged (2000 × g for 5 min at 4 °C). 100 μl samples of the supernatant fraction were then removed, and the aliquots used to determine the extracellular (EXT) concentration. The excess supernatant fraction was then discarded and the resulting cell pellet washed three times in 10 ml HBSS and centrifuged (2000 × g for 5 min). […] The samples were then assayed by HPLC, and the data expressed as cellular accumulation ratio (CAR), the ratio of the intracellular to the extracellular accumulation calculated by the formula, CAR = (INT/EXT) × 10 [intracellular concentrations were calculated using the volume of a single CEM and CEMVBL cell to be 1 picolitre (pl)] […]

[2] = system: CEMVBL cells which overexpress P-gp; assay: Intracellular accumulation (substrate study) in CEMVBL cells; format: in vitro ADME
Protocol: The parental cell line was CEM (T-lymphoblastoid cell line) was used as the parental cell line. CEMVBL cells that have increased expression of P-gp were selected under vinblastine. The selection of drug resistant cells was carried out by using increasing concentrations of vinblastine up to 100 ng/mL.
(§1) The cell samples were centrifuged (2000 × g for 5 min at 4 °C) and the supernatant fraction discarded. […] The cells were then incubated at 37 °C for 30 min in a shaking water bath. The resulting cell suspensions were then centrifuged (2000 × g for 5 min at 4 °C). 100 μl samples of the supernatant fraction were then removed, and the aliquots used to determine the extracellular (EXT) concentration. The excess supernatant fraction was then discarded and the resulting cell pellet washed three times in 10 ml HBSS and centrifuged (2000 × g for 5 min). The resulting pellets were solubilized by reconstituting in 100 μl of distilled water and used to determine intracellular (INT) concentrations as described in a method previously validated in our laboratory. The experiment was carried out in quadruplicate. The samples were then assayed by HPLC, and the data expressed as cellular accumulation ratio (CAR), the ratio of the intracellular to the extracellular accumulation calculated by the formula, CAR = (INT/EXT) × 10 [intracellular concentrations were calculated using the volume of a single CEM and CEMVBL cell to be 1 picolitre (pl)] [15, 30].

[3] = system: CEM (parental) T-lymphoblastoid cells; assay: Effect of PZQ and tariquidar on intracellular accumulation of SQV in CEM cells (inhibition study); format: cell-based
Protocol: as §1

P-gp (CEMVBL cells) = target: T1, P-gp (CEMVBL cells) (Homo sapiens, UniProt P08183); assay: Effect of PZQ and tariquidar on intracellular accumulation of SQV in CEMVBL cells (inhibition study); format: cell-based
T1 construct: CEMVBL cells that have increased expression of P-gp were selected under vinblastine; endogenous in cells; host or cells: CEMVBL (vinblastine-selected CEM T-lymphoblastoid cells)
T1 sequence (P08183 whole entry): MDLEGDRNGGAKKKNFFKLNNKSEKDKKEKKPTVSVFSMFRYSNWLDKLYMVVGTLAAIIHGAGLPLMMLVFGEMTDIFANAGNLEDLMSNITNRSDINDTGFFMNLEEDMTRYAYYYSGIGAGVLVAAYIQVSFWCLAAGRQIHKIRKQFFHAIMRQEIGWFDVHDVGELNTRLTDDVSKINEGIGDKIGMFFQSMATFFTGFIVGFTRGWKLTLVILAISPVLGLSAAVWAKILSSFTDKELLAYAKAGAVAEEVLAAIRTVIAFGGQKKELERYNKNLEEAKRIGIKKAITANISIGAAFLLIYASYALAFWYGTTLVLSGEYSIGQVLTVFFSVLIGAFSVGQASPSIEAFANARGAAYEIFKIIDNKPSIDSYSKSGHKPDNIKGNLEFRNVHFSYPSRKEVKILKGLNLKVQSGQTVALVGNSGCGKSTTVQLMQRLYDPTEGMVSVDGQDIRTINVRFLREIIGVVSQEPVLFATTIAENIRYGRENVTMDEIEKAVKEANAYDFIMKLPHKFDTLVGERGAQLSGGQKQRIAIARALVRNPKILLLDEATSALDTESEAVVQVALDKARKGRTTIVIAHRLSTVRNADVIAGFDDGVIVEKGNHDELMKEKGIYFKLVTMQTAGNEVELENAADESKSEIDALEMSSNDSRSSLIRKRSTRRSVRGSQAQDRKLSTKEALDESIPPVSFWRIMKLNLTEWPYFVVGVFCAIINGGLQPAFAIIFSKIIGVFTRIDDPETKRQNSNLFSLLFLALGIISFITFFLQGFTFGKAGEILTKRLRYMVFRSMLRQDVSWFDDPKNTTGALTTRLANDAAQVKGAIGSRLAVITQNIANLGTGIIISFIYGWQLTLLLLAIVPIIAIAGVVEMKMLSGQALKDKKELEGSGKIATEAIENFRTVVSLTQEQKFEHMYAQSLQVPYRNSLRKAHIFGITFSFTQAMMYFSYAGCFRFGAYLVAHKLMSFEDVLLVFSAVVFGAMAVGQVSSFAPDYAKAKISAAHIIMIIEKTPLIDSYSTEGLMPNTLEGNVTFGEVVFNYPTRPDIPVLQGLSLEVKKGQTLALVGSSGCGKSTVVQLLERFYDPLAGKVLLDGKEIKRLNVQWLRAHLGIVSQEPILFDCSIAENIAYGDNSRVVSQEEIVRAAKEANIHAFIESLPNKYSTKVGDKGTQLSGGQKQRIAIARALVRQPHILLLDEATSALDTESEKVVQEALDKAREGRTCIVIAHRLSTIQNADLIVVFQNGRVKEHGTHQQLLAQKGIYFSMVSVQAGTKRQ
Protocol: as §1

[4] = Freeze-thaw stability of QC samples in DMEM (HPLC); format: physicochemical; conditions: for Stability, Mean: freeze-thawed versus freshly prepared samples, peak areas; for Effect of freeze thawing on concentration in DMEM: freeze-thawed versus fresh DMEM samples
From the text: The separation from endogenous compounds was investigated by analyzing six different samples of DMEM. Short and long term stability was investigated by comparing the peak areas of six freshly prepared QC assay samples to those of the freeze-thawed samples, and it was expressed as a percentage.

P-gp = system: P-gp; parameters: method as in PMID 16846720; conditions: Caco-2 cell lines; cited from earlier work
[5] = system: cellular efflux pumps (P-gp); parameters: method as in PMID 15847994, PMID 20513441; conditions: cited from earlier work
SMDR2, a P-gp orthologue = system: SMDR2, a P-gp orthologue; parameters: method as in PMID 19726755; conditions: cited from earlier work

## O=C(C1CCCCC1)N1CC(=O)N2CCc3ccccc3C2C1 (centres unmarked) [PZQ, Praziquantel]
[1]; CAR = (INT/EXT) × 10, samples 1-4
  Cellular accumulation ratio (CAR), individual sample: 0.03 and 0.05 and 0.04
[1]; mean (± SD), n = 4
  Cellular accumulation ratio (CAR), mean: 0.04 ± 0.009 and 0.04
[2]; CEMVBL cells, 10 μg/ml drug, 30 min, 37 °C, mean (± SD), n = 4
  Cellular accumulation ratio (CAR), mean: 0.05 ± 0.005 and 0.05
[2]; CEMVBL cells, 10 μg/ml drug, 30 min, 37 °C, samples 1-4
  Cellular accumulation ratio (CAR), individual sample: 0.06 and 0.05
[2]; comparison of accumulation in CEM and CEMVBL cells
  P-gp substrate specificity (conclusion): not a substrate of P-gp; also recorded: neither a substrate nor an inhibitor of P-gp
[3]; 10 μg/ml SQV + 10 μg/ml PZQ, mean (± SD), n = 4
  CAR of SQV in presence of PZQ, mean: 0.54 ± 0.061 and 0.54
[3]; 10 μg/ml SQV + 10 μg/ml PZQ, samples 1-4
  CAR of SQV in presence of PZQ, individual sample: 0.45 and 0.57 and 0.59 and 0.53
P-gp (CEMVBL cells); effect on SQV accumulation in CEMVBL cells compared to tariquidar
  P-gp inhibition (conclusion): not an inhibitor of P-gp; also recorded: neither a substrate nor an inhibitor of P-gp
[4]; HQC 19.2 μM in DMEM
  Stability, Mean: 109 (±3) %
[4]; LQC 6.4 μM in DMEM
  Stability, Mean: 105 (±4) %
[4]; MQC 12.8 μM in DMEM
  Stability, Mean: 113 (±6) %
[4]
  Effect of freeze thawing on concentration in DMEM: did not appear to significantly affect the concentrations
P-gp
  P-gp inhibitor / substrate status: an inhibitor of P-gp without being a substrate
[5]
  Interaction with cellular efflux pumps / P-gp substrate status: did not show potential for interacting with cellular efflux pumps; also recorded: not a substrate
  Permeability: highly permeable substance
SMDR2, a P-gp orthologue
  Inhibition of transport by SMDR2: inhibit the transport by SMDR2

## CC(C)(C)NC(=O)[C@@H]1C[C@@H]2CCCC[C@@H]2CN1C[C@@H](O)[C@H](Cc1ccccc1)NC(=O)[C@H](CC(N)=O)NC(=O)c1ccc2ccccc2n1 [SQV, Saquinavir]
[3]; 10 μg/ml SQV alone, mean (± SD), n = 4
  CAR of SQV alone, mean (inhibition study): 0.52 ± 0.068 and 0.52
[3]; 10 μg/ml SQV alone, samples 1-4
  CAR of SQV alone, individual sample (inhibition study): 0.57 and 0.50 and 0.59 and 0.44
P-gp (CEMVBL cells); CEMVBL cells, 10 μg/ml SQV alone, mean (± SD), n = 4
  CAR of SQV alone, mean (inhibition study): 0.09 ± 0.015 and 0.09
P-gp (CEMVBL cells); CEMVBL cells, 10 μg/ml SQV alone, samples 1-4
  CAR of SQV alone, individual sample (inhibition study): 0.07 and 0.10 and 0.11
[4]
  Effect of freeze thawing on concentration in DMEM: did not appear to significantly affect the concentrations

## COc1cc2c(cc1OC)CN(CCc1ccc(NC(=O)c3cc(OC)c(OC)cc3NC(=O)c3cnc4ccccc4c3)cc1)CC2 [tariquidar]
[3]; 10 μg/ml SQV + 1 μM tariquidar, mean (± SD), n = 4
  CAR of SQV in presence of tariquidar (XR), mean: 0.61 ± 0.102 and 0.61
[3]; 10 μg/ml SQV + 1 μM tariquidar, samples 1-4, listed as XR
  CAR of SQV in presence of tariquidar (XR), individual sample: 0.55 and 0.51 and 0.73 and 0.66
